Assay results: patent US10961219B2, “Derivatives and their use as selective inhibitors of caspase-2” (priority 2016, dated 2021)
Residues, ends and D or L forms follow the SMILES beside them. *: point of attachment. X1 = O=C(O)C[C@H](N*)C(=O)COc1c(F)cccc1F; Quinaldoyl = O=C(c1ccc2ccccc2n1)*

Tests used:
Caspase-3 = target: T1, Caspase-3 (Homo sapiens, UniProt P42574); test: Caspase-3 inhibition assay (in vitro), kinact/KI by continuous method; type: biochemical; conditions: human recombinant Caspase-3 0.5 nM, substrate Ac-DEVD-AMC, 37° C.; read-out: Inactivation constant kinact/KI Caspase-3 (converted)
T1 construct: the Caspase-2 and Caspase-3 are human recombinant active enzymes; purchased R&D Systems 707-C3-010/CF
T1 sequence (P42574 29-175 limits assumed): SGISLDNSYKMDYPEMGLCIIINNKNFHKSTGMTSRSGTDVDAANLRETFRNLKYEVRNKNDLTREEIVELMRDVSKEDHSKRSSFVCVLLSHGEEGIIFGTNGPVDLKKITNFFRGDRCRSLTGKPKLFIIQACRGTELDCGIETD
T1 sequence (P42574 176-277 limits assumed): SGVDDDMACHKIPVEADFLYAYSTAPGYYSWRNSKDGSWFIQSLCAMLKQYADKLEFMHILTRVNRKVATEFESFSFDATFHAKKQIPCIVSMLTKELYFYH
Description: (§1) The efficiency of the compound 2 of the invention to inhibit Caspase-2 and Caspase-3 has been evaluated by using the below explained protocol.
(§2) The efficiency of the comparative compound Δ2Me-TRP601, that is an already known group II Caspase inhibitor (inhibitor of Caspase-2, Caspase-3 and Caspase-7), has been assessed by a similar protocol described in Chauvier et al., 2011 Cell Death Dis 2011, 2:e203.
In this example, the Caspase-2 and Caspase-3 are human recombinant active enzymes that are respectively provided by Enzo Life® (ALX-201-057-U100) and R&D Systems® (707-C3-010/CF). […]
The peptide substrates used for the enzymatic activity measurements are Ac-DEVD-AMC and Ac-VDVAD-AMC commercialized by EnzoLife® (respectively referenced ALX-260-031-M005 and ALX-260-060-M005). […] The releasing of AMC enables to follow the enzymatic activity in fluorescence unit RFU over time in a 96-wells microplate (COSTAR 3915).
The fluorescence values are measured at 37° C. with a spectrofluorometer with a microplate reader BMG FLUOstar OPTIMA. […]
The inhibitory properties of the tested compounds are evaluated by the determination of the kinact/KI ratio regarding either Caspase-2 or Caspase-3 wherein: • kinact is the maximal inactivation rate constant, and • KI is the dissociation constant according to: […]
(§3) The activities of the enzyme are measured between 45 and 60 minutes. […]

Caspase-2 = target: T2, Caspase-2 (Homo sapiens, UniProt P42575); test: Caspase-2 inhibition assay (in vitro), kinact/KI by continuous method; type: biochemical; conditions: for kinact/KI: human recombinant Caspase-2 0.1 nM, substrate Ac-VDVAD-AMC, 37° C., read-out: Inactivation constant kinact/KI Caspase-2 (converted); for times more efficient to inactivate Caspase-2 than to inactivate Caspase-3 (selectivity): ratio of kinact/KI Caspase-2 versus Caspase-3
T2 construct: the Caspase-2 and Caspase-3 are human recombinant active enzymes; purchased Enzo Life ALX-201-057-U100
T2 sequence (P42575 170-325 limits assumed): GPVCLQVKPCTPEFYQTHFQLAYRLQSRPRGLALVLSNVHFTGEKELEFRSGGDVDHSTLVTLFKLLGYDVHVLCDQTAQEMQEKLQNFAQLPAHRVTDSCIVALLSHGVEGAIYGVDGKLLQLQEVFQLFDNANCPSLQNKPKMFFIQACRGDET
T2 sequence (P42575 348-452 limits assumed): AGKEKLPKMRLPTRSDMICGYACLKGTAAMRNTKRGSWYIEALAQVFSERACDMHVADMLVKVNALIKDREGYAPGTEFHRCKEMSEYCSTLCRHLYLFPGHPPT
Description: as §1, §2
In this example, the Caspase-2 and Caspase-3 are human recombinant active enzymes that are respectively provided by Enzo Life® (ALX-201-057-U100) and R&D Systems® (707-C3-010/CF).
Caspase-2 is used at a final concentration of 0.1 nM in a “Caspase-2 buffer” containing 20 mM HEPES (pH 7.4), 5 mM DTT, 2 mM EDTA, 0.1% CHAPS and 800 mM succinate. Caspase-3 is used at a final concentration of 0.5 nM in a “Caspase-3 buffer” containing 20 mM HEPES (pH 7.4), 0.1% CHAPS, 5 mM DTT, and 2 mM EDTA.
The peptide substrates used for the enzymatic activity measurements are Ac-DEVD-AMC and Ac-VDVAD-AMC commercialized by EnzoLife® (respectively referenced ALX-260-031-M005 and ALX-260-060-M005). They are fluorogenic due to the presence of their AMC (7-amino-4-methylcoumarin) end group. The releasing of AMC enables to follow the enzymatic activity in fluorescence unit RFU over time in a 96-wells microplate (COSTAR 3915).
The fluorescence values are measured at 37° C. with a spectrofluorometer with a microplate reader BMG FLUOstar OPTIMA. This apparatus is driven by the software Biolise® and is equipped with thermoelectric cooling device by Peltier effect. The mathematic analysis of the experimental data are done with the software Kaleidagraph@.
The inhibitory properties of the tested compounds are evaluated by the determination of the kinact/KI ratio regarding either Caspase-2 or Caspase-3 wherein: • kinact is the maximal inactivation rate constant, and • KI is the dissociation constant according to:
Said ratio is measured according to the continuous method (Allison R D. Curr Protoc Protein Sci. 2001 May; Chapter 3:Unit 3.5.; Chauvier et al., 2011 Cell Death Dis 2:e203; Tan et al., J Med Chem 2015, […]).
Briefly, Caspases activities were determined by monitoring the hydrolysis of fluorogenic substrates (λexc=355 nm, λem=460 nm) as a function of time, in the presence of untreated Caspases (control) or Caspases that had been incubated with a test compound, for 30 min minimum at 37° C. using a BMG Fluostar microplate reader (black 96-well microplates) and the initial velocity (V0) was determined from the linear portion of the progress curve.
Substrates and compounds were previously dissolved in DMSO at 10 mM, with the final solvent concentration kept at lower 4% (v/v). V0, relative velocities, KM and IC50 were determined from experimental datas using Mars datas Analysis 2.0 and Kaleidagraph softwares.
Inhibitor binding affinity (dissociation constant, KI) and first-order rate constant (k3) parameters were determined for Caspase-2 and Caspase-3 using the progress curve method. The ratio k3/KI was obtained by fitting the experimental data to the equations (F.U., fluorescence unit): […]
A continuous method of determination of the kinact/KI ratio was used for evaluating the inhibitory activity of the tested compounds against Caspase-2 and Caspase-3.
The reaction mixture is prepared by letting the enzyme and the buffer incubate at 37° C. […]
as §3

HeLa cells = test: Protection against cellular death induced by vincristine, propidium iodide flow cytometry; type: cell-based, human; conditions: compound at 3, 10, 30 and 60 μM added 1 hour before 20 nM vincristine, 48 hours
Protocol: In this example, the protective effect of the compound 2 of the invention against cellular death induced by vincristine (a vinca alkaloid) is tested using a well-known flow cytometry cell death assay based on propidium iodide staining.
To evaluate the protecting effect of compound 2, a Caspase-dependent cellular model is used.
Human HeLa cells are used in this model. HeLa cells (cervical cancer cell line) were obtained from American Type Cell Collection (ATCC), and were cultured in Dulbecco's Modified Eagle Medium (DMEM, High Glucose, GlutaMAX™, Pyruvate) (Gibco, Life technologies), supplemented with 10% FCS and antibiotics (Gibco, Life technologies).
Human HeLa cells are treated with Vincristine (Sigma Aldrich) solubilized in water at 5 mM. Vincristine works partly by binding to the tubulin protein, stopping the cell from separating its chromosomes during the metaphase; the cell then undergoes apoptosis.
Propidium iodide (PI) (Sigma Aldrich) is used to evaluate plasma membrane permeabilisation, a sign of cell death. […]
The cells are then analyzed by flow cytometry with an excitation of 561 nm.
Fluorescence-Activated Cell Sorting was performed using a FACSCalibur cytometer (Becton Dickinson, San Jose, Calif.). For each sample, data from 5,000 Cells were registered and analyzed with the CellQuest Pro™ software (Becton Dickinson). […]

SMILES | kinact/KI (Caspase-3) | efficiency to inhibit Caspase-2 (in words) (Caspase-2; compared with Δ2Me-TRP601) | kinact/KI (Caspase-2) | times more efficient to inactivate Caspase-2 than to inactivate Caspase-3 (selectivity) (Caspase-2) | protection of cells against apoptotic death induced by vincristine (percentage of propidium iodide positive cells) (HeLa cells)
Cc1ccc2c(c1)CCN(C(=O)[C@@H](NC(=O)[C@H](CC(=O)O)NC(=O)[C@@H](NC(=O)c1ccc3ccccc3n1)C(C)C)C(C)C)[C@@H]2C(=O)N[C@@H](CC(=O)O)C(=O)COc1c(F)cccc1F [Compound 2, (S)-3-((S)-2-((S)-2-((S)-3-carboxy-2-((S)-3-methyl-2-(quinoline-2-carboxamido)butanamido)propanamido)-3-methylbutanoyl)-6-methyl-1,2,3,4-tetrahydroisoquinoline-1-carboxamido)-5-(2,6-difluorophenoxy)-4-oxopentanoic acid] | 30500 M⁻¹ s⁻¹ | as efficient as Δ2Me-TRP601 to inhibit Caspase-2 | 1.76e+06 M⁻¹ s⁻¹ | 57 times | protects the cells against apoptotic death induced by vincristine in a dose-dependent manner
CC(C)[C@H](NC(=O)c1ccc2ccccc2n1)C(=O)N[C@@H](CC(=O)O)C(=O)N[C@H](C(=O)N[C@@H](C)C(=O)N[C@@H](CC(=O)O)C(=O)COc1c(F)cccc1F)C(C)C [Δ2Me-TRP-601, reference compound] (Quinaldoyl-VDVA-X1) | 1.92e+06 M⁻¹ s⁻¹ |  | 1.57e+06 M⁻¹ s⁻¹ | does not exhibit this selectivity | 
